Assay results reported in patent US20140031296A1, “NEW SYNTHETIC PEPTIDES AND THEIR USE” (PERGAMUM AB, priority 2011, published 2014).

Tests used:
[1] = test system: S. epidermidis (ATCC12228); assay: MMC99 assay, S. epidermidis; type: cell-based
Method: (§1) The antimicrobial effects of the peptides 232 (SEQ ID NO: 78), and 220 (SEQ ID NO:67) were analysed by MMC99 (minimal microbicidal concentration) assay against S. aureus (CCUG 1800), MRSA (CCUG 41879), P. aeruginosa (ATCC 15442), E. coli (CCUG 31246), S. pyogenes (CCUG 4207), P. acnes (CCUG 1794T), S. epidermidis (ATCC12228), K. pneumoniae (ATCC 13883), A. baumannii (ATCC 19606), and C. albicans (ATCC 64549). The peptides were purchased from Biopeptide Company (San Diego, Calif., USA) and Bachem AG (Bubendorf, Switzerland) and results are presented in Table 8A and 8B respectively.
(§2) Peptides were serially diluted in two different assay medium, 1% BHI medium (brain-heart infusion medium) or 50% heat inactivated simulated wound fluid (SWF), and thereafter incubated with the microorganisms for 2 hours. Drops of the suspension were placed on blood agar plates. The MMC99 values, i.e. the lowest peptide concentration needed to achieve a 99% reduction of viable microorganisms, were recorded. As presented in Table 8, all the peptides have the ability to kill microorganisms frequently appearing in infections.

[2] = test system: P. aeruginosa (ATCC 15442); assay: MMC99 assay, P. aeruginosa; type: cell-based
Method: as §1, §2

C. albicans (ATCC 64549) = assay: MMC99 assay, C. albicans; type: cell-based
Method: as §1, §2

[3] = test system: TNF-α production in LPS stimulated THP-1 cells; assay: Inhibition of TNF-α production in LPS stimulated THP-1 cells (ELISA); type: cell-based, human; conditions: screen 2, mean relative secretion, basal = 0%; for TNF-α at 4 μM peptide / TNF-α at 10 μM peptide: stimulated = 100%; for TNF-α at 40 μM peptide: LPS-stimulated level without peptide = 100%
Method: (§3) After 6 hours of incubation at +37° C., 5% CO2 and in a humid atmosphere, the cell supernatants were collected, centrifuged and kept frozen in −20° C. until analyzed for TNF-α content by ELISA (R&D Systems, Minneapolis, Minn., USA). The results are presented as mean relative secretion (%), with stimulated TNF-α level without peptide added set to 100% and basal secretion set to 0% (Table 2).
as §3, with “incubation,” for “incubation at +37° C., 5% CO2 and in a humid atmosphere,”, “centrifuged,” for “centrifuged”, “5).” for “2).”

E. coli (CCUG 31246) = assay: MMC99 assay, E. coli; type: cell-based
Method: as §1, §2

[4] = test system: A. baumannii (ATCC 19606); assay: MMC99 assay, A. baumannii; type: cell-based
Method: as §1, §2

P. acnes (CCUG 1794T) = assay: MMC99 assay, P. acnes; type: cell-based
Method: as §1, §2

[5] = test system: K. pneumoniae (ATCC 13883); assay: MMC99 assay, K. pneumoniae; type: cell-based
Method: as §1, §2

Sequence | MMC99 ([1]; 1% BHI) | MMC99 ([1]; 50% SWF) | MMC99 ([2]; 1% BHI) | MMC99 ([2]; 50% SWF) | MMC99 (C. albicans (ATCC 64549); 1% BHI) | MMC99 (C. albicans (ATCC 64549); 50% SWF) | TNF-α at 4 μM peptide [3] | TNF-α at 10 μM peptide [3] | TNF-α at 40 μM peptide [3] | MMC99 (E. coli (CCUG 31246); 1% BHI) | MMC99 (E. coli (CCUG 31246); 50% SWF) | MMC99 ([4]; 1% BHI) | MMC99 ([4]; 50% SWF) | MMC99 (P. acnes (CCUG 1794T); 1% BHI) | MMC99 (P. acnes (CCUG 1794T); 50% SWF) | MMC99 ([5]; 1% BHI) | MMC99 ([5]; 50% SWF)
RRLWRRWMRKVL [Peptide 232] | 3 µg/mL | 50 µg/mL | 5 µg/mL | >176 µg/mL | 3 µg/mL | 50 µg/mL | 96.9% | 66.6% | 33.2% | 5 µg/mL | >176 µg/mL | 3 µg/mL | 200 µg/mL | 6 µg/mL | >200 µg/mL | 6 µg/mL | >200 µg/mL
QSLARKLFQWLRNLRKVA [Peptide 220] | – | – | 7 µg/mL | >200 µg/mL | – | – | 70.8% | 37.0% | 11.6% | 3 µg/mL | >200 µg/mL | – | – | <3 µg/mL | 100 µg/mL | – | –
